Literature values, collected in patent US11306114B2, “Process for separation, isolation and characterization of steviol glycosides” (Heartland Consumer Products, LLC, priority 2014, dated 2022).
Read-outs that look alike come from different tables or passages of the source.

Experiments:
[1] = for Sweetness Intensity: relative to an equal weight of sucrose, data from Tanaka, Pure & Appl. Chem.
[2] = subjective relative ranking; data from Tanaka, Pure & Appl. Chem.
[3] = carbonated beverages (Chang et al. 1983) / general statement
[4] = literature statements

For C=C1C[C@@]23CC[C@H]4[C@@](C)(CCC[C@@]4(C)C(=O)O[C@@H]4O[C@H](CO)[C@@H](O)[C@H](O)[C@H]4O)[C@@H]2CC[C@]1(O[C@@H]1O[C@H](CO)[C@@H](O)[C@H](O)[C@H]1O[C@@H]1O[C@@H](C)[C@H](O)[C@@H](O)[C@H]1O)C3 [dulcoside-A, dulcoside A], the “times sweeter than sucrose” value ([1]; general statements in text, varies with temperature and viscosity of the carrier medium) is given as “about 30 times”, the “Sweetness Intensity” value [1] is given as 70 and the “Sweetness Quality” value [2] is given as −2.
For C=C1C[C@@]23CC[C@H]4[C@@](C)(CCC[C@@]4(C)C(=O)O[C@@H]4O[C@H](CO)[C@@H](O)[C@H](O)[C@H]4O)[C@@H]2CC[C@]1(O[C@@H]1O[C@H](CO)[C@@H](O)[C@H](O[C@@H]2O[C@H](CO)[C@@H](O)[C@H](O)[C@H]2O)[C@H]1O[C@@H]1O[C@H](CO)[C@@H](O)[C@H](O)[C@H]1O)C3 [rebaudioside-A, rebaudioside A], the “Sweetness Intensity” value [1] is given as 250, the “Sweetness Quality” value [2] is given as 2 and the “heat and pH stability” value [3] is given as “heat and pH stability”. For the same molecule, the taste attributes ([4]; listed as Rebaudioside A) was “the least astringent, the least bitter, and the least persistent aftertaste” and the taste attributes ([4]; listed as rebaudioside A) was “metallic and bitter notes”.
For C=C1C[C@@]23CC[C@H]4[C@@](C)(CCC[C@@]4(C)C(=O)O[C@@H]4O[C@H](CO)[C@@H](O)[C@H](O)[C@H]4O[C@@H]4O[C@H](CO)[C@@H](O)[C@H](O)[C@H]4O)[C@@H]2CC[C@]1(O[C@@H]1O[C@H](CO)[C@@H](O)[C@H](O[C@@H]2O[C@H](CO)[C@@H](O)[C@H](O)[C@H]2O)[C@H]1O[C@@H]1O[C@H](CO)[C@@H](O)[C@H](O)[C@H]1O)C3 [rebaudioside-D, rebaudioside D], the “Sweetness Intensity” value [1] is given as 300 and the “Sweetness Quality” value [2] is given as 3.
For C=C1C[C@@]23CC[C@H]4[C@@](C)(CCC[C@@]4(C)C(=O)O[C@@H]4O[C@H](CO)[C@@H](O)[C@H](O)[C@H]4O[C@@H]4O[C@H](CO)[C@@H](O)[C@H](O)[C@H]4O)[C@@H]2CC[C@]1(O[C@@H]1O[C@H](CO)[C@@H](O)[C@H](O)[C@H]1O[C@@H]1O[C@H](CO)[C@@H](O)[C@H](O)[C@H]1O)C3 [rebaudioside-E, rebaudioside E], the “Sweetness Intensity” value [1] is given as 200 and the “Sweetness Quality” value [2] is given as 1.
For C=C1C[C@@]23CC[C@H]4[C@@](C)(CCC[C@@]4(C)C(=O)O[C@@H]4O[C@H](CO)[C@@H](O)[C@H](O)[C@H]4O)[C@@H]2CC[C@]1(O[C@@H]1O[C@H](CO)[C@@H](O)[C@H](O)[C@H]1O)C3 [rubusoside], the “Sweetness Intensity” value [1] is listed as 115 and the “Sweetness Quality” value [2] is listed as −2.
In the case of C=C1C[C@@]23CC[C@H]4[C@@](C)(CCC[C@@]4(C)C(=O)O)[C@@H]2CC[C@]1(O[C@@H]1O[C@H](CO)[C@@H](O)[C@H](O)[C@H]1O[C@@H]1O[C@H](CO)[C@@H](O)[C@H](O)[C@H]1O)C3 [steviolbioside], the “Sweetness Intensity” value [1] is listed as 40 and the “Sweetness Quality” value [2] is listed as −3.
In the case of C=C1C[C@@]23CC[C@H]4[C@@](C)(CCC[C@@]4(C)C(=O)O)[C@@H]2CC[C@]1(O[C@@H]1O[C@H](CO)[C@@H](O)[C@H](O)[C@H]1O)C3 [steviolmonoside], the “Sweetness Intensity” value [1] is given as 40 and the “Sweetness Quality” value [2] is given as −3.
For C=C1C[C@@]23CC[C@H]4[C@@](C)(CCC[C@@]4(C)C(=O)O[C@@H]4O[C@H](CO)[C@@H](O)[C@H](O)[C@H]4O)[C@@H]2CC[C@]1(O[C@@H]1O[C@H](CO)[C@@H](O)[C@H](O)[C@H]1O[C@@H]1O[C@H](CO)[C@@H](O)[C@H](O)[C@H]1O)C3 [stevioside, 13-[(2-O-β-D-glucopyranosyl-α-D-glucopyranosyl)oxy]-kaur-16-en-18-oic acid β-D-glucopyranosyl ester], the “Sweetness Intensity” value [1] is given as 145, the “Sweetness Quality” value [2] is given as 0 and the “heat and pH stability” value [3] is given as “heat and pH stability”. The taste attributes [4] was “metallic and bitter notes”.
In the case of rebaudioside B, the “Sweetness Intensity” value [1] is given as 300 and the “Sweetness Quality” value [2] is given as 3.
For rebaudioside C [rebaudioside-C], the “Sweetness Intensity” value [1] is given as 200 and the “Sweetness Quality” value [2] is given as −1.
